Reference: patent EP1104674A1, “O,o'-dihydroxy azo dyes as medicinal components with TPO-agonistic or -synergetic activity” (Curacyte AG, priority 1999, dated 2001)
pEC50: −log10 of the molar value.

Molecular target: T1, humanen mpl-Rezeptor (Homo sapiens, UniProt P40238)
T1 sequence (P40238 26-635): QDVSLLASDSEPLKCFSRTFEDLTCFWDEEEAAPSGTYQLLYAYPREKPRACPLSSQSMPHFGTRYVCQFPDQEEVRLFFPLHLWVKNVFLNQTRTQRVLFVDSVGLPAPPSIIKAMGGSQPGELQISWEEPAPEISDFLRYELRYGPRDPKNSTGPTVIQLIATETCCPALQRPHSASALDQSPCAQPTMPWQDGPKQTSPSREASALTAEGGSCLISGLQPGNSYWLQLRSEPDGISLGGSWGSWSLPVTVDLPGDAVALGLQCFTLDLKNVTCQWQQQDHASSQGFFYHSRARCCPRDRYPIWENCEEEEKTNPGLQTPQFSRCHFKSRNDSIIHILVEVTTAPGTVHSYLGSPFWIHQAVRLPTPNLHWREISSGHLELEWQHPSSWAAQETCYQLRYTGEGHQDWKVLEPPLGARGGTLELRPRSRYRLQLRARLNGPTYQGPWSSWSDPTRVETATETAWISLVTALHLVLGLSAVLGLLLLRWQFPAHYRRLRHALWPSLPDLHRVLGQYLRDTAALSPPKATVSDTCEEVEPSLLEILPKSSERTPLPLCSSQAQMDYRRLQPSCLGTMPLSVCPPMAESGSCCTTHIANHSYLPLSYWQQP
Assay: TPO-dependent cell proliferation test with BaF3 cells transfected with the human mpl receptor (BaF3/mpl), WST readout
Assay type: cell-based
Conditions: BaF3-mpl Rezeptor Proliferationstest; 48 bis 72 h; half-maximal stimulation after background subtraction
Text: Die Bioaktivität der erfindungsgemäßen Verbindungen kann mittels eines TPO-abhängigen Zellproliferationstests gemessen werden. Die Substanzen dürfen keine Wirkung auf die nicht transfektierten parenteralen BaF3 Zellen ausüben. Murine IL-3-abhängig wachsende BaF3 Zellen wurden mit dem humanen mpl-Rezeptor transfektiert. In Abwesenheit von IL-3 ist die Proliferation und das Überleben dieser Zellen abhängig von TPO. Die parentale, untransfektierte Zell-Linie reagiert nicht auf humanes TPO, proliferiert aber in Gegenwart von IL-3. Die Bestimmung der Zellproliferation erfolgt nach literaturbekannten Verfahren (WO 96/40750). Die chemischen Substanz-Bibliotheken wurden in Bioassays mit den beiden obigen Zell-Linien gescreent. Die Zellen wurden in Gegenwart von IL-3 (BaF3 parental) bzw. TPO (BaF3-mpl-Rezeptor tragend = BaF3/mpl) in RPMI 1640 Medium in Gegenwart von 10 % FCS (fetales Kälberserum) gezüchtet. Für den Test wurden die Zellen zweimal in IL-3 bzw. TPO freiem Medium gewaschen und im Medium, das kein TPO bzw. IL-3 enthielt, resuspendiert. Diese Zellsuspension wurde dann zur Vertiefung einer 96 Tüpfelplatte (Costar), die TPO oder IL-3 und/oder Verbindung enthielt, in einer Menge von 10^4 Zellen/Vertiefung zugegeben. Die Zellen wurden dann für 48 bis 72 h bei 37°C in einem CO2 Inkubator inkubiert. Die proliferative Aktivität wurde bestimmt durch die Zugabe von WST (WST: Zell-Proliferations-Reagens; BM-Katalog-Nr. 1644807 "Tetrazolium-Salz").WST wird von proliferierenden Zellen zu Formazan umgewandelt und diese Umwandlung, als Maß für die Proliferation wird mittels OD (OD: optical density) bei 570 nm in einem ELISA Platten Meßgerät bestimmt.
Zur Ermittlung der halbmaximalen Stimulation wurde vom maximal erzielten Signal der Background (Zellen ohne Substanz) abgezogen und dieser Wert durch 2 geteilt. Dieser Wert plus dem Background-Wert wurden dann zur Bestimmung der EC50 (halbmaximale excitatorv concentration; Substratkonzentration, bei der die Substanz ihre halbmaximale Wirksamkeit im BaF3-mpl Rezeptor Proliferationstest ausübt) herangezogen. In Tabelle 3 sind die EC50-Werte bespielhaft für drei untersuchte Verbindungen dargestellt.
Die untersuchten Verbindungen stimulieren die Proliferation von mit mpl-Rezepror transfektierten BaF3 Zellen in einer Dosis abhängigen Weise. Die Proliferation von parenteralen Zell-Linien wird nicht stimuliert. Auch in Abwesenheit von TPO stimulieren die Verbindungen die Proliferation der BaF3/mpl-Zellen in wochenlanger Kultur. Tabelle 3

pEC50 | SMILES
5.80 | O=[N+]([O-])c1ccc2c(N=Nc3c(O)ccc4ccccc34)c(O)cc(S(=O)(=O)O)c2c1 [Beispiel 12]
5.35 | Cc1ccc(NC(=O)c2cc3ccccc3c(N=Nc3cc(S(=O)(=O)O)ccc3O)c2O)c(C)c1 [Beispiel 15]
7.14 | O=S(=O)(O)c1cccc2c(O)c(N=Nc3ccc(C(F)(F)F)cc3O)ccc12 [Beispiel 20, 5-Hydroxy-6-(2-hydroxy-4-trifluormethyl-phenylazo)naphthalin-1-sulfonsäure]
5.25 | Cc1ccc(O)c(N=Nc2c(O)cc(S(=O)(=O)O)c3ccccc23)c1 [Beispiel 13]
5.86 | O=[N+]([O-])c1ccc2c(N=Nc3ccc4ccccc4c3O)c(O)cc(S(=O)(=O)O)c2c1 [Beispiel 9]
